Measured values taken from US11214803B2, “Modulators of YAP1 expression” (Ionis Pharmaceuticals, Inc., priority 2019, dated 2022).

Columns and labels:
Yap1 mRNA [1] = assay: Dose-dependent inhibition of human Yap1 in A-431 cells (Example 24, 11,000 cells per well, RTS36584, normalized to GAPDH); assay type: cell-based; settings: free uptake, 48 hours; for Yap1 mRNA, % UTC: RTS36584, normalized to GAPDH; for IC50: linear regression on a log/linear plot
Description: Modified oligonucleotides described in the studies above were tested at various doses in A-431 cells. Cultured A-431 cells at a density of 11,000 cells per well were treated using free uptake with modified oligonucleotides diluted to concentrations described in the tables below. After approximately 48 hours, Yap1 mRNA levels were measured as previously described using the Human Yap1 primer-probe set RTS36584. Yap1 mRNA levels were normalized to GAPDH content, as measured by primer probe set RTS104 (forward sequence […], designated herein as SEQ ID NO.: 17; reverse sequence […], designated herein as SEQ ID NO.: 18; probe sequence […], designated herein as SEQ ID NO.: 19). Results are presented in the tables below as percent control of the amount of Yap1 mRNA relative to untreated control cells (% UTC). IC50s were calculated using a linear regression on a log/linear plot of the data in excel.

Yap1 mRNA [2] = assay: Inhibition of human Yap1 mRNA in SNU449 hepatocellular carcinoma xenograft tumors (Example 26); assay type: in vivo; settings: SNU449 xenografts in NSG mice, 50 mg/kg twice weekly for five days, relative to PBS treated animals
How it was run: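 Female NSG mice bearing subcutaneous SNU449 xenografts (about 100 mm^3) dosed with modified oligonucleotides at 50 mg/kg twice weekly for five days, four per group. Tumour Yap1 mRNA measured by RT-qPCR, normalized to actin-beta, expressed as % of PBS-treated controls.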

Yap1 mRNA [3] = assay: Inhibition of human Yap1 mRNA in squamous cell carcinoma CAL27 xenograft tumors (Example 28); assay type: in vivo; settings: CAL27 xenografts in NCr-Foxn1nu mice, relative to PBS treated
Description: A squamous cell carcinoma CAL27 xenograft tumor model was used to evaluate activity of modified oligonucleotides targeted to human Yap1. Five million CAL27 cells in 30% matrigel were implanted subcutaneously into the flanks of female CrTac:NCr-Foxn1nu mice (from Taconic) at 4-6 weeks of age. Groups of four mice each were administered with either 15 mg/kg or 30 mg/kg of modified oligonucleotides daily for five days after tumor size had reached ˜100 mm^3 (about 3 weeks post implantation). Tumors were collected and tested for Yap1 mRNA knockdown by RT-qPCR. Yap1 mRNA levels were measured as previously described using the Human Yap1 primer-probe set RTS4814. Yap1 mRNA levels were normalized to actin-beta content, as measured by primer probe set RTS5002. Results are presented in the tables below as percent control of the amount of Yap1 mRNA relative to PBS treated […].

[4] = Cynomolgus monkey tolerability, body and organ weight measurements (Example 34); assay type: in vivo; settings: cynomolgus monkeys, 35 mg/kg subcutaneously; for Heart weight / Kidney weight / Liver with gallbladder weight / Spleen weight: necropsy; for Terminal Body Weight: prior to necropsy
Description: Cynomolgus monkeys were treated with Ionis modified oligonucleotides selected from studies described in the Examples above. Modified oligonucleotide tolerability was evaluated.
During the study period, the monkeys were observed twice daily for signs of illness or distress. Any animal experiencing more than momentary or slight pain or distress due to the treatment, injury or illness was treated by the veterinary staff with approved analgesics or agents to relieve the pain after consultation with the Study Director. Any animal in poor health or in a possible moribund condition was identified for further monitoring and possible euthanasia. Scheduled euthanasia of the animals was conducted on day 86 approximately 48 hours after the last dose by exsanguination while under deep anesthesia. The protocols described in the Example were approved by the Institutional Animal Care and Use Committee (IACUC).
To evaluate the effect of Ionis oligonucleotides on the overall health of the animals, body and organ weights were measured. Terminal body weight was measured prior to necropsy.

[5] = Tolerability in Sprague-Dawley rats, body and organ weights (Example 22); assay type: in vivo; settings: male Sprague-Dawley rats, 50 mg/kg s.c. weekly for 6 weeks (7 doses); for Kidney weight / Liver weight / Spleen weight: end of study; for body weight: terminal, prior to necropsy
Description: Terminal body weight was measured prior to necropsy. Ionis oligonucleotides that caused any changes in organ weights outside the expected range for modified oligonucleotides were excluded from further studies.

[6] = Cynomolgus monkey tolerability, coagulation (Example 34); assay type: in vivo; settings: cynomolgus monkeys, 35 mg/kg subcutaneously, day 44
Description: To evaluate effect of Ionis modified oligonucleotides on coagulation in cynomolgus monkeys, blood samples of approximately 0.9 mL were collected from each of the available study animals on day 44. The samples were collected in tubes containing 3.2% sodium citrate. Coagulation parameters tested include Activated partial thromboplastin time (APTT), prothrombin time (PT) and Figrinogen (FIB).

SCC25 cells = assay: Cell proliferation assay in SCC25 cells, CellTiter-Glo (Example 25); assay type: cell-based, human; settings: free uptake, 144 hours
Description: Modified oligonucleotides described in the studies above were tested at various doses in squamous cell carcinoma cell SCC25. A control oligonucleotide 792169 (a 3-10-3 cET gapmer with a full phosphorothioate backbone, […], designated herein as SEQ ID No.: 2940; is not complementary to any known human gene) was also tested.
Cultured SCC25 cells at a density of 1,000 cells/well were treated using free uptake with modified oligonucleotides diluted to concentrations described in the tables below. After approximately 144 hours, cell proliferation was measured using the luminescent cell viability CellTiter-Glo® 2.0 Assay (Promega). Results are presented in the tables below as percent control of the amount of luminescence in samples treated with modified oligonucleotides relative to untreated control cells (% UTC).

[7] = cynomolgus monkey, in vivo, sc, 35 mg/kg

Row | Substance | Yap1 mRNA, % UTC (Yap1 mRNA [1]; 0.002 μM) | Yap1 mRNA, % UTC (Yap1 mRNA [1]; 0.008 μM) | Yap1 mRNA, % UTC (Yap1 mRNA [1]; 0.04 μM) | Yap1 mRNA, % UTC (Yap1 mRNA [1]; 0.2 μM) | Yap1 mRNA, % UTC (Yap1 mRNA [1]; 1 μM) | Yap1 mRNA in tumors, % control (Yap1 mRNA [2]) | Yap1 mRNA in tumors, % UTC (Yap1 mRNA [3]; 15 mg/kg daily for five days) | Yap1 mRNA in tumors, % UTC (Yap1 mRNA [3]; 30 mg/kg daily for five days) | Heart weight [4] | Kidney weight [4] | Liver with gallbladder weight [4] | Spleen weight [4] | Terminal Body Weight [4] | Kidney weight [5] | Liver weight [5] | Spleen weight [5] | body weight [5] | APTT [6] | FIB [6] | PT [6] | other results
1 | 1198831 (CACTTTTACATTAGGA; chemically modified gapmer, further chemistry not given here) [compound 1198831] | 2 % UTC | 6 % UTC | 28 % UTC | 72 % UTC | 83 % UTC | 67 % control | 70 % UTC | 48 % UTC | 11 g | 14 g | 65 g | 4 g | 2788 g | 3.3 g | 19 g | 2.0 g | 426 g | 18 s | 209 mg/dL | 10 s | cell proliferation (luminescence) % UTC (SCC25 cells; 0.04 μM): 88 % UTC; cell proliferation (luminescence) % UTC (SCC25 cells; 0.2 μM): 54 % UTC; cell proliferation (luminescence) % UTC (SCC25 cells; 1 μM): 25 % UTC; cell proliferation (luminescence) % UTC (SCC25 cells; 5 μM): 21 % UTC; A/G ratio [7]: 1.4
2 | 1198623 (CTAAGTAAGGTTTCCC; modified gapmer, further chemistry not given here) [compound 1198623] | 2 % UTC | 5 % UTC | 28 % UTC | 72 % UTC | 96 % UTC | 60 % control | 52 % UTC | 44 % UTC | 9 g | 13 g | 62 g | 3 g | 2790 g | 3.6 g | 20 g | 1.9 g | 472 g | 17 s | 229 mg/dL | 10 s | cell proliferation (luminescence) % UTC (SCC25 cells; 0.04 μM): 84 % UTC; cell proliferation (luminescence) % UTC (SCC25 cells; 0.2 μM): 55 % UTC; cell proliferation (luminescence) % UTC (SCC25 cells; 1 μM): 36 % UTC; cell proliferation (luminescence) % UTC (SCC25 cells; 5 μM): 29 % UTC; A/G ratio [7]: 1.4
3 | 1198872 (TGTATGTCAGAAGAGT; chemically modified gapmer, further chemistry not given here) [compound 1198872] | 1 % UTC | 3 % UTC | 19 % UTC | 70 % UTC | 94 % UTC | 52 % control | 55 % UTC | 38 % UTC | 12 g | 15 g | 63 g | 4 g | 3126 g | 3.4 g | 17 g | 1.3 g | 417 g | 21 s | 206 mg/dL | 10 s | cell proliferation (luminescence) % UTC (SCC25 cells; 0.04 μM): 82 % UTC; cell proliferation (luminescence) % UTC (SCC25 cells; 0.2 μM): 37 % UTC; cell proliferation (luminescence) % UTC (SCC25 cells; 1 μM): 22 % UTC; cell proliferation (luminescence) % UTC (SCC25 cells; 5 μM): 18 % UTC; A/G ratio [7]: 1.3
4 | 1197270 (TTAAAGTGTATGTCAG; cEt gapmer with 2'-OMe nucleoside, phosphorothioate, further chemistry not given here) [compound 1197270] | 0 % UTC | 2 % UTC | 26 % UTC | 80 % UTC | 99 % UTC | 54 % control | 55 % UTC | 38 % UTC | 10 g | 17 g | 73 g | 4 g | 2852 g | 3.6 g | 15 g | 2.0 g | 374 g | 17 s | 257 mg/dL | 10 s | IC50 (Yap1 mRNA [1]): 0.02 µM; cell proliferation (luminescence) % UTC (SCC25 cells; 0.04 μM): 75 % UTC; cell proliferation (luminescence) % UTC (SCC25 cells; 0.2 μM): 40 % UTC; cell proliferation (luminescence) % UTC (SCC25 cells; 1 μM): 22 % UTC; cell proliferation (luminescence) % UTC (SCC25 cells; 5 μM): 14 % UTC; A/G ratio [7]: 1.2
5 | 1198605 (GTAATATTGCAATCTG; modified gapmer, further chemistry not given here) [compound 1198605] | 0 % UTC | 2 % UTC | 26 % UTC | 57 % UTC | 96 % UTC | 55 % control | 65 % UTC | 48 % UTC | 11 g | 15 g | 67 g | 4 g | 2968 g | 3.6 g | 18 g | 2.1 g | 372 g | 23 s | 236 mg/dL | 9 s | IC50 (Yap1 mRNA [1]): 0.02 µM; cell proliferation (luminescence) % UTC (SCC25 cells; 0.04 μM): 77 % UTC; cell proliferation (luminescence) % UTC (SCC25 cells; 0.2 μM): 39 % UTC; cell proliferation (luminescence) % UTC (SCC25 cells; 1 μM): 23 % UTC; cell proliferation (luminescence) % UTC (SCC25 cells; 5 μM): 13 % UTC; A/G ratio [7]: 1.5
